# Measurements reported in ChEMBL document CHEMBL5034046, “Discovery of Small-Molecule CD33 Pre-mRNA Splicing Modulators” (ACS Med Chem Lett, 2022).
# Tests used:
# [1] = Modulation of CD33 pre-mRNA splicing in human K562 cells assessed as induction of exon 2 skipping measured after 16 to 24 hrs by Nano-Luciferase counter screen assay; format: cell-based
# [2] = test system: K562; experiment: Modulation of CD33 pre-mRNA splicing in human K562 cells assessed as induction of exon 2 skipping at 25 uM measured after 18 to 24 hrs by Nano-Luciferase reporter assay; format: cell-based; details: filed as modulator, time 18-24 hrs
# [3] = Modulation of CD33 pre-mRNA splicing in human K562 cells assessed as induction of exon 2 skipping measured after 18 to 24 hrs by Nano-Luciferase reporter assay; format: cell-based
# [4] = test system: THP-1; experiment: Cytotoxicity against human THP-1 cells assessed as reduction in cell viability by DAPI staining based assay; format: functional
# [5] = Increase in CD11c level in human THP-1 cell surface incubated for 48 to 72 hrs by high content imaging assay; format: functional
# [6] = […] level in human THP-1 cell surface incubated for 48 to 72 hrs by high content imaging assay; format: functional
# [7] = molecular target: Proprotein convertase subtilisin/kexin type 9 (Homo sapiens, UniProt Q8NBP7); experiment: Inhibition of PCSK9 translation in human THP-1 cells by AlphaLISA assay; format: cell-based
# [8] = […] level in human THP-1 cell surface at top concentration incubated for 48 to 72 hrs by high content imaging assay; format: functional; details: time 48-72 hrs
# [9] = molecular target: Sodium-dependent dopamine transporter (Homo sapiens) (UniProt Q01959); experiment: Inhibition of dopamine transporter (unknown origin) expressed in cells incubated for 60 mins by amine transporter assay; format: cell-based
# [10] = Solubility of compound at pH 7.4; format: physicochemical; details: buffer
# [11] = molecular target: T1, Muscarinic acetylcholine receptor M1 (Homo sapiens, UniProt P11229); experiment: Antagonist activity at muscarinic M1 receptor (unknown origin) expressed in cells assessed as change in fluorescence measured after 24 hrs by FLIPR assay; format: functional, cell-based
# T1 sequence (P11229 whole entry): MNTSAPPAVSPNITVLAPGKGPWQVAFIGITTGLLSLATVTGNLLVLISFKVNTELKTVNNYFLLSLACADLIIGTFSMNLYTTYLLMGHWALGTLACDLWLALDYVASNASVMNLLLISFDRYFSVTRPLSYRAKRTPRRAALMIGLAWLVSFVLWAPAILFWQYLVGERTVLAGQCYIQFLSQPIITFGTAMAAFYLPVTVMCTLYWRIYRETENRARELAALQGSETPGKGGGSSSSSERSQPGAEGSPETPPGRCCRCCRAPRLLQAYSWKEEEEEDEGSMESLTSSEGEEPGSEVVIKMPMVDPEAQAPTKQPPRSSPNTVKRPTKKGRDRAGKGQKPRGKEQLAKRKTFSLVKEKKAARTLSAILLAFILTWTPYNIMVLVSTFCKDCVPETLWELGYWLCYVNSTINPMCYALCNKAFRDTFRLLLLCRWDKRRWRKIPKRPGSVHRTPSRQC
# [12] = molecular target: Histamine H1 receptor (Homo sapiens, UniProt P35367); experiment: Agonist activity at histamine H1 receptor (unknown origin) expressed in cells assessed as change in fluorescence measured after 24 hrs by FLIPR assay; format: functional, cell-based
# [13] = molecular target: T2, Voltage-gated inwardly rectifying potassium channel KCNH2 (Homo sapiens, UniProt Q12809); experiment: Inhibition of human ERG
# [14] = Cytotoxicity against human THLE cells by ATP depletion assay; format: cell-based
# [15] = molecular target: D(1A) dopamine receptor (Homo sapiens, UniProt P21728); experiment: Agonist activity at dopamine D1 receptor (unknown origin) expressed in cells assessed as change in fluorescence measured after 24 hrs by FLIPR assay; format: functional, cell-based
# [16] = molecular target: 3',5'-cyclic-AMP phosphodiesterase 4D (Homo sapiens, UniProt Q08499); experiment: Inhibition of PDE4D3 (unknown origin) assessed as conversion of cAMP to AMP measured after 30 mins by YSi scintillation proximity assay
# [17] = Apparent permeability in MDCK cells; format: ADME, cell-based, Canis lupus familiaris; details: dog
# [18] = molecular target: Sodium-dependent noradrenaline transporter (Homo sapiens) (UniProt P23975); experiment: Inhibition of norepinephrine transporter (unknown origin) expressed in cells incubated for 60 mins by amine transporter assay; format: cell-based
# [19] = molecular target: T2, Voltage-gated inwardly rectifying potassium channel KCNH2; experiment: Displacement of [3H]-dofetilide from human ERG
# [20] = Inhibition of PDE3A1 (unknown origin) assessed as conversion of cAMP to AMP measured after 30 mins by YSi scintillation proximity assay; design: species or system Homo sapiens
# [21] = molecular target: Beta-2 adrenergic receptor (Homo sapiens, UniProt P07550); experiment: Agonist activity at adrenergic beta2 receptor (unknown origin) expressed in cells measured after 90 mins by beta-arrestin recruitment assay; format: functional, cell-based
# [22] = molecular target: T3, Alpha-1A adrenergic receptor (Homo sapiens, UniProt P35348); experiment: Agonist activity at adrenergic alpha-1A receptor (unknown origin) expressed in cells assessed as change in fluorescence measured after 24 hrs by FLIPR assay; format: functional, cell-based
# T3 sequence (P35348 whole entry): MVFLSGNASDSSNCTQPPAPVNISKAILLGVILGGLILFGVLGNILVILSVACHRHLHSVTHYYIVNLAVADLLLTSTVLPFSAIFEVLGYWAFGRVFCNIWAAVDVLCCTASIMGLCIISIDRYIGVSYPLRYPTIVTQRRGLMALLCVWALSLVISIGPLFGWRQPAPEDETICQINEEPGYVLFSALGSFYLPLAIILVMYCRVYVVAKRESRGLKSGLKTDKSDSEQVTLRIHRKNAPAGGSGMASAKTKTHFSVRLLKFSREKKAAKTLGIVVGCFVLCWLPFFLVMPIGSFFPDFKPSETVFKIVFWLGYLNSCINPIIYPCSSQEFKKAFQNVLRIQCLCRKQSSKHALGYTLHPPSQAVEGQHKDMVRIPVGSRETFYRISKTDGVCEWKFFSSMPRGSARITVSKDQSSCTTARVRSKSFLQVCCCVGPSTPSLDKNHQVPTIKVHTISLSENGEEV
# [23] = Distribution coefficient, logD of compound at pH 7.4 by shake flask method; format: physicochemical; details: octanol/water
# [24] = molecular target: Cannabinoid receptor 1 (Homo sapiens, UniProt P21554); experiment: Agonist activity at cannabinoid receptor 1 (unknown origin) expressed in cells measured after 90 mins by beta-arrestin recruitment assay; format: functional, cell-based
# [25] = molecular target: 5-hydroxytryptamine receptor 2B (Homo sapiens, UniProt P41595); experiment: Agonist activity at serotonin 2B receptor (unknown origin) expressed in cells assessed as change in fluorescence measured after 24 hrs by FLIPR assay; format: functional, cell-based
# [26] = molecular target: Sodium-dependent serotonin transporter (Homo sapiens) (UniProt P31645); experiment: Inhibition of serotonin transporter (unknown origin) expressed in cells incubated for 30 mins by amine transporter assay; format: cell-based
# [27] = molecular target: Bromodomain-containing protein 4 (Homo sapiens, UniProt O60885); experiment: Inhibition of His-tagged BRD4 (unknown origin) using tetra-acetylated histone H4 peptide as substrate by fluorescent polarization binding assay
# [28] = molecular target: cGMP-specific 3',5'-cyclic phosphodiesterase (Homo sapiens, UniProt O76074); experiment: Inhibition of PDE5A1 (unknown origin) assessed as conversion of cAMP to AMP measured after 30 mins by YSi scintillation proximity assay
# Proprotein convertase subtilisin/kexin type 9, sequence (Q8NBP7 31-152 limits assumed): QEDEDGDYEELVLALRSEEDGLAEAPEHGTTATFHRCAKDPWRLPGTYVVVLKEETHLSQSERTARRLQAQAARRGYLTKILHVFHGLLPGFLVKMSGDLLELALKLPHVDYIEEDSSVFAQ
# Proprotein convertase subtilisin/kexin type 9, sequence (Q8NBP7 153-692 limits assumed): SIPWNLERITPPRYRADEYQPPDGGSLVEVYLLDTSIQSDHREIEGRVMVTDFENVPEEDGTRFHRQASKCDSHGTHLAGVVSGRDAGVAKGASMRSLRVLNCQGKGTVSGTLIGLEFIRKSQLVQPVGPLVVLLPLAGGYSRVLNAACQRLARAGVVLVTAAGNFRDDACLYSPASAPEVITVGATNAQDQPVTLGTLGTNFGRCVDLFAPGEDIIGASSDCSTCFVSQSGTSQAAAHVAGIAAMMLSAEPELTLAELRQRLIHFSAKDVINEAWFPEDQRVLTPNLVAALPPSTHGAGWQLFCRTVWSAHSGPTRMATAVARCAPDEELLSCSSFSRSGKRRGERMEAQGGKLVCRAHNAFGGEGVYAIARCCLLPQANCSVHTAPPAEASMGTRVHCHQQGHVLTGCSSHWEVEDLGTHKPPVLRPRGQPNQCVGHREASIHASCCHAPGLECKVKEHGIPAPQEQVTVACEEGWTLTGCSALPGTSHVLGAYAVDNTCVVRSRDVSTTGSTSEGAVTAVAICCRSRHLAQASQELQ
# T2 sequence (Q12809 whole entry): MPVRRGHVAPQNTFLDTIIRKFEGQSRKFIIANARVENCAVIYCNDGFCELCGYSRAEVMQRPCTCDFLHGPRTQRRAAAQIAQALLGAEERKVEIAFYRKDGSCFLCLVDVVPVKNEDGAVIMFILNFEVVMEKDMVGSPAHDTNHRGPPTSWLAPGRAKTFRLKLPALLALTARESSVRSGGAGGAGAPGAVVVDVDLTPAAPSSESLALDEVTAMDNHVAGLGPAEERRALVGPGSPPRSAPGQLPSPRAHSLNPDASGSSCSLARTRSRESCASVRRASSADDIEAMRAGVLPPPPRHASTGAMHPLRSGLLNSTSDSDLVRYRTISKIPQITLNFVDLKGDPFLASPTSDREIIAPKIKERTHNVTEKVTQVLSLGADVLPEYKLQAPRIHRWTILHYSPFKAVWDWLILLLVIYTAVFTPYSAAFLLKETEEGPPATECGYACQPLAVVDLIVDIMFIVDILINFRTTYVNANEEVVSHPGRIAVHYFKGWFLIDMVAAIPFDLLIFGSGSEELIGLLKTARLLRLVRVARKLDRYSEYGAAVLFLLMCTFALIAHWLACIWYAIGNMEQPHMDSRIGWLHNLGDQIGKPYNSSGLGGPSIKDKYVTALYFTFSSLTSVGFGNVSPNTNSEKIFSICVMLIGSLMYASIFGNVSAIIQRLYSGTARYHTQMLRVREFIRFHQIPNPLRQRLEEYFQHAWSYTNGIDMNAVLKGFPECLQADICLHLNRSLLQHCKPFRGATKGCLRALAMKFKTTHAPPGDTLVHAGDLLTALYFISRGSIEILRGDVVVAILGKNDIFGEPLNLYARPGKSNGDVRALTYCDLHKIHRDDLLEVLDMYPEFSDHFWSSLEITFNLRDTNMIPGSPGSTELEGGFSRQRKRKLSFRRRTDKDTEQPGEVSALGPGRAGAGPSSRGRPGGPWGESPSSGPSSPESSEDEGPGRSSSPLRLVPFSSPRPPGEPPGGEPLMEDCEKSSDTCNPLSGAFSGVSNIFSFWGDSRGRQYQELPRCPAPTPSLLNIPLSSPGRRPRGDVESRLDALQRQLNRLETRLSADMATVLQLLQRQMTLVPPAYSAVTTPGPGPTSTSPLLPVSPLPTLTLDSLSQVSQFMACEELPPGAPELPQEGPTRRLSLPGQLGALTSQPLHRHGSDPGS
# Sodium-dependent dopamine transporter (Homo sapiens), sequence (Q01959 whole entry): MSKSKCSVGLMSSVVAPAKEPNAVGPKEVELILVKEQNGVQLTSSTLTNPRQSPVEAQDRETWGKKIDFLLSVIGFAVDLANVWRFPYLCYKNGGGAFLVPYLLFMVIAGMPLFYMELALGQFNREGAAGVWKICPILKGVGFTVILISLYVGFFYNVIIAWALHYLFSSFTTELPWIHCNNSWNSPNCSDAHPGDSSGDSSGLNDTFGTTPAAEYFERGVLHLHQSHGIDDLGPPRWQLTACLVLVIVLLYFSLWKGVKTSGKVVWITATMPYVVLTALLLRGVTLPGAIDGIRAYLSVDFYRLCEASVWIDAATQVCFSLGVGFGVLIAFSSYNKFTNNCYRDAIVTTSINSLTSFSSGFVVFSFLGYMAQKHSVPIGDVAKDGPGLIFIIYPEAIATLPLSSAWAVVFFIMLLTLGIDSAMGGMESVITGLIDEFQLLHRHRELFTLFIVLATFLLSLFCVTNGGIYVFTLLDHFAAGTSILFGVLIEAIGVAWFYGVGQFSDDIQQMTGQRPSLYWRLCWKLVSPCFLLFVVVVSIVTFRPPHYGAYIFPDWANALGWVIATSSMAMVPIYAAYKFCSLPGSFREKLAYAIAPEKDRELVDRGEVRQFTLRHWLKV
# 3',5'-cyclic-AMP phosphodiesterase 4D, sequence (Q08499 whole entry): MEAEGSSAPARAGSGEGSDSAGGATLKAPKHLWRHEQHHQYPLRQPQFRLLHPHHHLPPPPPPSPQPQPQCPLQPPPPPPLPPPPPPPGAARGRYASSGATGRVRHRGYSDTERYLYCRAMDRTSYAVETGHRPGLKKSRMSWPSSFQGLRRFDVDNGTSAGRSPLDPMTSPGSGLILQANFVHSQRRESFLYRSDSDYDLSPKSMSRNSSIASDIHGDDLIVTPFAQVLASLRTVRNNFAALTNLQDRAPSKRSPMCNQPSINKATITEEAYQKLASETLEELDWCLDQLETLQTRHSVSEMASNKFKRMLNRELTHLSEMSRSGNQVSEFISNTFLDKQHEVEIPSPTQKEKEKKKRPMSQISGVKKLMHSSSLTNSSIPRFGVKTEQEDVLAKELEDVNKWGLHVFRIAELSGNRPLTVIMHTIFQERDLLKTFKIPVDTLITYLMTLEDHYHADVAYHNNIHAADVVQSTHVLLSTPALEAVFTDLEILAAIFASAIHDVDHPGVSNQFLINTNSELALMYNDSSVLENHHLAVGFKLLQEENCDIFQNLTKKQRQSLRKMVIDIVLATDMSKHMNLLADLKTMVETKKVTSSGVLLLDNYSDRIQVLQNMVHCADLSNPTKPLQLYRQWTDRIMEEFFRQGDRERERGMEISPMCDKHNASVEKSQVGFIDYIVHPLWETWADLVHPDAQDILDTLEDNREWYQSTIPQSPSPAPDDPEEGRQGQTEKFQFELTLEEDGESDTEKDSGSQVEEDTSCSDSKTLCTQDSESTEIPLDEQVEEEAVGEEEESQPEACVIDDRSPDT
# Beta-2 adrenergic receptor, sequence (P07550 whole entry): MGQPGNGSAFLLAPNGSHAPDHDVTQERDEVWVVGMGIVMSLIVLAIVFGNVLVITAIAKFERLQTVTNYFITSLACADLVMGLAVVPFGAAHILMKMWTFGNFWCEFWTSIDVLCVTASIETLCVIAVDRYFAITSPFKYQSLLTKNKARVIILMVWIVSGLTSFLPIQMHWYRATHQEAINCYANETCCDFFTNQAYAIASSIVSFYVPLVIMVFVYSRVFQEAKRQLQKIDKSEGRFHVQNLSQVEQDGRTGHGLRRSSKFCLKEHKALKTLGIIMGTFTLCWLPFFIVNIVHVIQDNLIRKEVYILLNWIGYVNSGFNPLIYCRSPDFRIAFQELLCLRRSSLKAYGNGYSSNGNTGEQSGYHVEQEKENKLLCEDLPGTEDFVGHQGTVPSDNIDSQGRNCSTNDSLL
# Histamine H1 receptor, sequence (P35367 whole entry): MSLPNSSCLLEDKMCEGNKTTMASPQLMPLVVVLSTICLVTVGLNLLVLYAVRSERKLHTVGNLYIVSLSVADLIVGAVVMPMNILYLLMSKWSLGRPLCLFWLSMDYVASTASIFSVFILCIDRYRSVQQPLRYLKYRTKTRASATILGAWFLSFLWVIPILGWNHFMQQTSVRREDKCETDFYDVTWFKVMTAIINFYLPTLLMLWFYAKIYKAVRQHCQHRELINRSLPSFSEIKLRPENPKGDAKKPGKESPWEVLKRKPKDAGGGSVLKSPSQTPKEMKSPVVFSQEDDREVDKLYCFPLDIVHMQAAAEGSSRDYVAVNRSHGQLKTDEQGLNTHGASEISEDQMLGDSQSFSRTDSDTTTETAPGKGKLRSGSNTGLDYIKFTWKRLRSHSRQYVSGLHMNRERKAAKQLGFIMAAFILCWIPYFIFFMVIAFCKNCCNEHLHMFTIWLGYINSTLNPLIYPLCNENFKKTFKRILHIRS
# 5-hydroxytryptamine receptor 2B, sequence (P41595 whole entry): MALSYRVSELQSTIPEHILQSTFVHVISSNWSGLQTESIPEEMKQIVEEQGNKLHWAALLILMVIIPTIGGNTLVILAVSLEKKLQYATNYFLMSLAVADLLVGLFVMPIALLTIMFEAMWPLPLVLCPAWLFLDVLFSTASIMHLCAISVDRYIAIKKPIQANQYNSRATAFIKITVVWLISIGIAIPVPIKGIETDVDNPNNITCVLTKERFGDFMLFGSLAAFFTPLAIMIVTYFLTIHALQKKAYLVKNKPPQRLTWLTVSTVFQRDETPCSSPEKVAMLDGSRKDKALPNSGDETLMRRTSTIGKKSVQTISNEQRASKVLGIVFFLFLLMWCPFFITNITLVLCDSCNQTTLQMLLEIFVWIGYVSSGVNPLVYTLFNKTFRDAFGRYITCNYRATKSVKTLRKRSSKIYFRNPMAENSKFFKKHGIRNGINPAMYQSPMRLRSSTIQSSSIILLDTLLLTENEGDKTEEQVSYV
Compound,EC50 [1],Emax [2],EC50 [3],EC50 [4],EC50 [5],EC50 [6],IC50 [7],Emax [8],further results
O=C(c1ccc(-n2nnc3cccnc32)cc1)N(c1ncccc1Cl)[C@@H]1CCCNC1,> 10 µM,100%,4.5 µM,,,,,,
Cc1cnc2c(c1)nnn2-c1ccc(C(=O)N(c2ncccc2Cl)[C@@H]2CCCNC2)cc1,> 10 µM,80%,1.4 µM,,,,,,
CNc1cncc(-c2ccc(C(=O)N(c3ncccc3Cl)[C@@H]3CCCNC3)cc2)n1,> 10 µM,100%,5.6 µM,> 10 µM,> 10 µM,6 µM,3.1 µM,-25%,
CN(C)c1cncc(-c2ccc(C(=O)N(c3ncccc3Cl)[C@@H]3CCCNC3)cc2)n1,> 10 µM,,> 10 µM,> 50 µM,> 50 µM,39 µM,3 µM,-41%,
Cc1cccnc1N(C(=O)c1ccc(-c2cnn3cccnc23)cc1)[C@@H]1CCCNC1,> 10 µM,145%,3.7 µM,> 50 µM,> 50 µM,33 µM,2.2 µM,-41%,
O=C(c1ccc(-c2cnn3cccnc23)cc1)N(c1nccc2ccccc12)[C@@H]1CCCNC1,> 10 µM,206%,0.58 µM,,,,1.3 µM,,
Cc1cnc2c(-c3ccc(C(=O)N(c4ncccc4C)[C@@H]4CCCNC4)cc3F)cnn2c1,> 10 µM,100%,7.8 µM,> 10 µM,> 10 µM,2.1 µM,1.7 µM,-43%,Kb [9]: > 10 µM; solubility [10]: 460 µM; Ki [11]: 0.4 µM; EC50 [12]: > 10 µM; EC50 [13]: 12.7 µM; IC50 [14]: 204 µM; EC50 [15]: > 10 µM; IC50 [16]: 39 µM; Papp [17]: 10.1 ×10⁻⁶ cm/s; Kb [18]: > 10 µM; Ki [19]: 7.2 µM; IC50 [20]: 99 µM; EC50 [21]: > 10 µM; EC50 [22]: > 10 µM; logD [23]: 1.1; EC50 [24]: > 10 µM; EC50 [25]: > 10 µM; Kb [26]: > 10 µM; IC50 [27]: > 25 µM; IC50 [28]: > 200 µM
Cc1ccc2nnn(-c3ccc(C(=O)N(c4ncccc4Cl)[C@@H]4CCCNC4)cc3)c2n1,> 25 µM,155%,4.4 µM,,,,0.9 µM,,
COC(=O)c1c(-c2ccc(C(=O)N(c3ncccc3C)[C@@H]3CCCNC3)cc2)cnn1C,> 10 µM,220%,3.6 µM,> 50 µM,> 50 µM,8.3 µM,2.5 µM,-35%,
Cc1cncc(-c2ccc(C(=O)N(c3ncccc3Cl)[C@@H]3CCCNC3)cc2)n1,> 10 µM,,> 10 µM,> 30 µM,> 30 µM,> 30 µM,2.8 µM,-32%,
